Measurements as given in US20220282217A1, “COMPOSITIONS AND METHODS FOR PREPARING T CELL COMPOSITIONS AND USES THEREOF” (priority 2019, published 2022).
Where a SMILES comes first, the peptide text is derived from it.

Each compound was assayed against HLA-A03.01 (Homo sapiens, UniProt P04439) (assay: Class I MHC peptide binding affinity (displacement of radiolabeled reference peptide)). Conditions: allele A03.01; read-out: Observed Affinity (IC50; (nM)).

IC50	Compound
74.3 nM	C[C@@H](O)[C@H](NC(=O)[C@H](CCC(=O)O)NC(=O)[C@H](CCCCN)NC(=O)[C@H](CCCCN)NC(=O)[C@H](CCCCN)NC(=O)[C@H](CO)NC(=O)[C@@H](N)CCCCN)C(=O)N[C@@H](Cc1ccccc1)C(=O)N[C@@H](CCCCN)C(=O)O (H-KSKKKETFK-OH; N-terminus and C-terminus assumed)
14.3 nM	CC(C)C[C@H](NC(=O)[C@@H](NC(=O)[C@@H](N)[C@@H](C)O)[C@@H](C)O)C(=O)N[C@@H](CC(N)=O)C(=O)N[C@@H](CO)C(=O)N1CCC[C@H]1C(=O)N1CCC[C@H]1C(=O)N[C@@H](CC(C)C)C(=O)N[C@@H](CCCCN)C(=O)N[C@@H](CCCCN)C(=O)O (H-TTLNSPPLKK-OH; N-terminus and C-terminus assumed)
94.9 nM	CC(C)C[C@H](NC(=O)[C@H](C)NC(=O)[C@@H]1CCCN1C(=O)[C@@H](NC(=O)[C@H](CCCCN)NC(=O)[C@H](CCCCN)NC(=O)[C@H](CC(C)C)NC(=O)[C@H](CO)NC(=O)[C@@H](N)Cc1c[nH]c2ccccc12)C(C)C)C(=O)N[C@@H](CCCCN)C(=O)O (H-WSLKKVPALK-OH; N-terminus and C-terminus assumed)
19 nM	CC(C)C[C@H](NC(=O)[C@@H](N)CO)C(=O)N[C@@H](CCC(N)=O)C(=O)N1CCC[C@H]1C(=O)N1CCC[C@H]1C(=O)N1CCC[C@H]1C(=O)N1CCC[C@H]1C(=O)NCC(=O)N[C@@H](Cc1ccccc1)C(=O)N[C@@H](CCCCN)C(=O)O (H-SLQPPPPGFK-OH; N-terminus and C-terminus assumed)
1250 nM	CC[C@H](C)[C@H](N)C(=O)N[C@H](C(=O)N[C@H](C(=O)N[C@H](C(=O)N[C@@H](CCCCN)C(=O)N[C@@H](C)C(=O)N[C@H](C(=O)N[C@@H](CCC(=O)O)C(=O)N[C@H](C(=O)N[C@@H](CCCCN)C(=O)O)[C@@H](C)O)[C@@H](C)O)C(C)C)[C@@H](C)O)[C@@H](C)O (H-ITTVKATETK-OH; N-terminus and C-terminus assumed)
32.2 nM	C[C@@H](O)[C@H](NC(=O)[C@@H](N)CCCCN)C(=O)N[C@@H](Cc1ccccc1)C(=O)N[C@@H](CCC(=O)O)C(=O)N[C@@H](CCCCN)C(=O)N[C@@H](CCCCN)C(=O)NCC(=O)N[C@@H](CCC(=O)O)C(=O)N[C@@H](CCCCN)C(=O)O (H-KTFEKKGEK-OH; N-terminus and C-terminus assumed)
9.8 nM	CC(C)C[C@H](NC(=O)[C@@H](NC(=O)[C@@H](N)[C@@H](C)O)[C@@H](C)O)C(=O)N[C@@H](CC(N)=O)C(=O)N[C@@H](CO)C(=O)N1CCC[C@H]1C(=O)N1CCC[C@H]1C(=O)N[C@@H](CC(C)C)C(=O)N[C@@H](CCCCN)C(=O)O (H-TTLNSPPLK-OH; N-terminus and C-terminus assumed)
33 nM	CSCC[C@H](NC(=O)[C@H](CC(C)C)NC(=O)[C@@H]1CCCN1C(=O)[C@@H](NC(=O)[C@H](CCCCN)NC(=O)[C@H](CCSC)NC(=O)[C@@H](N)CCCNC(=N)N)C(C)C)C(=O)N[C@@H](CCCCN)C(=O)O (H-RMKVPLMK-OH; N-terminus and C-terminus assumed)
4.7 nM	CC(C)C[C@H](NC(=O)[C@H](CCC(N)=O)NC(=O)[C@H](CC(C)C)NC(=O)[C@H](Cc1c[nH]cn1)NC(=O)[C@H](CC(N)=O)NC(=O)[C@H](CCC(N)=O)NC(=O)[C@H](CCCNC(=N)N)NC(=O)[C@H](CO)NC(=O)[C@@H](N)CCCCN)C(=O)N[C@@H](CCCCN)C(=O)O (H-KSRQNHLQLK-OH; N-terminus and C-terminus assumed)
115 nM	CC[C@H](C)[C@H](NC(=O)[C@@H](N)CCCCN)C(=O)N[C@@H](CO)C(=O)N[C@@H](CC(N)=O)C(=O)N[C@@H](Cc1c[nH]c2ccccc12)C(=O)N[C@@H](CO)C(=O)N[C@@H](CC(C)C)C(=O)N[C@@H](CCCCN)C(=O)N[C@@H](CCCCN)C(=O)N[C@H](C(=O)O)C(C)C (H-KISNWSLKKV-OH; N-terminus and C-terminus assumed)
118 nM	CC(C)C[C@H](N)C(=O)N[C@H](C(=O)N[C@@H](CO)C(=O)N[C@@H](CO)C(=O)N[C@@H](CO)C(=O)N[C@@H](CCCNC(=N)N)C(=O)N[C@@H](CCC(=O)O)C(=O)N[C@@H](Cc1c[nH]c2ccccc12)C(=O)N[C@@H](CCCCN)C(=O)O)[C@@H](C)O (H-LTSSSREWK-OH; N-terminus and C-terminus assumed)
39.6 nM	C[C@@H](O)[C@H](NC(=O)[C@H](CCC(=O)O)NC(=O)[C@H](CCCCN)NC(=O)[C@H](CCCCN)NC(=O)[C@H](CCCCN)NC(=O)[C@H](CO)NC(=O)[C@@H](N)CCCCN)C(=O)N[C@@H](Cc1ccccc1)C(=O)N[C@@H](CCCCN)C(=O)N[C@@H](CCCCN)C(=O)O (H-KSKKKETFKK-OH; N-terminus and C-terminus assumed)

Continued, compound first:

Compound	IC50
CC(C)C[C@H](NC(=O)[C@@H](NC(=O)[C@H](CO)NC(=O)[C@H](CO)NC(=O)[C@H](CC(C)C)NC(=O)[C@@H](N)CCCNC(=N)N)C(C)C)C(=O)N[C@@H](CCC(N)=O)C(=O)N[C@@H](CCCNC(=N)N)C(=O)N[C@@H](Cc1ccccc1)C(=O)N[C@@H](CCCNC(=N)N)C(=O)O	12.5 nM
CC(C)C[C@H](NC(=O)[C@H](CCC(N)=O)NC(=O)[C@H](CC(C)C)NC(=O)[C@@H](N)Cc1c[nH]cn1)C(=O)N[C@@H](CCCCN)C(=O)N[C@@H](CO)C(=O)N[C@@H](CS)C(=O)N[C@@H](CCCNC(=N)N)C(=O)N[C@@H](CCCNC(=N)N)C(=O)N[C@@H](CCCCN)C(=O)O (H-HLQLKSCRRK-OH; N-terminus and C-terminus assumed)	96.9 nM
CC(C)C[C@H](NC(=O)[C@@H](N)[C@@H](C)O)C(=O)N[C@@H](CC(N)=O)C(=O)N[C@@H](CO)C(=O)N1CCC[C@H]1C(=O)N1CCC[C@H]1C(=O)N[C@@H](CC(C)C)C(=O)N[C@@H](CCCCN)C(=O)N[C@@H](CCCCN)C(=O)O (H-TLNSPPLKK-OH; N-terminus and C-terminus assumed)	5.4 nM
CC(C)[C@H](NC(=O)[C@H](CCCNC(=N)N)NC(=O)[C@@H](N)CCCCN)C(=O)N[C@@H](CC(N)=O)C(=O)N[C@H](C(=O)N[C@@H](C)C(=O)N[C@@H](Cc1c[nH]c2ccccc12)C(=O)N[C@@H](CCCCN)C(=O)N[C@H](C(=O)N[C@@H](CCCCN)C(=O)O)[C@@H](C)O)[C@@H](C)O (H-KRVNTAWKTK-OH; N-terminus and C-terminus assumed)	332 nM
CSCC[C@H](N)C(=O)N[C@@H](CC(C)C)C(=O)N[C@@H](CC(C)C)C(=O)N[C@@H](CCCNC(=N)N)C(=O)N[C@@H](CC(C)C)C(=O)N[C@@H](CC(N)=O)C(=O)N[C@@H](CC(C)C)C(=O)N[C@@H](CCCNC(=N)N)C(=O)N[C@@H](CCCCN)C(=O)O (H-MLLRLNLRK-OH; N-terminus and C-terminus assumed)	1.3 nM
CC(C)[C@H](NC(=O)[C@@H](N)CCCNC(=N)N)C(=O)N[C@@H](CC(N)=O)C(=O)N[C@H](C(=O)N[C@@H](C)C(=O)N[C@@H](Cc1c[nH]c2ccccc12)C(=O)N[C@@H](CCCCN)C(=O)N[C@H](C(=O)N[C@@H](CCCCN)C(=O)N[C@@H](CCCCN)C(=O)O)[C@@H](C)O)[C@@H](C)O (H-RVNTAWKTKK-OH; N-terminus and C-terminus assumed)	2.3 nM
CC(C)C[C@H](NC(=O)[C@H](C)NC(=O)[C@@H]1CCCN1C(=O)[C@@H](NC(=O)[C@H](CCCCN)NC(=O)[C@H](CCCCN)NC(=O)[C@H](CC(C)C)NC(=O)[C@@H](N)CO)C(C)C)C(=O)N[C@@H](CCCCN)C(=O)N[C@@H](CCCCN)C(=O)O (H-SLKKVPALKK-OH; N-terminus and C-terminus assumed)	9.6 nM
CSCC[C@H](NC(=O)[C@@H](N)Cc1ccc(O)cc1)C(=O)N[C@@H](Cc1ccccc1)C(=O)N[C@@H](CC(C)C)C(=O)N[C@@H](CCCCN)C(=O)N[C@@H](C)C(=O)N[C@@H](CCC(=O)O)C(=O)N[C@@H](CO)C(=O)N[C@@H](CCCCN)C(=O)O (H-YMFLKAESK-OH; N-terminus and C-terminus assumed)	79.8 nM
CSCC[C@H](NC(=O)[C@H](CC(C)C)NC(=O)[C@@H](N)CCCCN)C(=O)N[C@@H](CC(C)C)C(=O)N[C@@H](CC(C)C)C(=O)N[C@@H](CCCNC(=N)N)C(=O)N[C@@H](CC(C)C)C(=O)N[C@@H](CC(N)=O)C(=O)N[C@@H](CC(C)C)C(=O)N[C@@H](CCCNC(=N)N)C(=O)O (H-KLMLLRLNLR-OH; N-terminus and C-terminus assumed)	48.4 nM
CC(C)C[C@H](N)C(=O)N[C@@H](Cc1ccccc1)C(=O)N[C@@H](Cc1ccccc1)C(=O)N[C@@H](Cc1ccccc1)C(=O)N[C@@H](Cc1ccccc1)C(=O)N[C@@H](Cc1ccccc1)C(=O)N[C@@H](CCC(=O)O)C(=O)N[C@H](C(=O)N[C@@H](CCCCN)C(=O)O)[C@@H](C)O (H-LFFFFFETK-OH; N-terminus and C-terminus assumed)	413 nM
CC(C)C[C@H](NC(=O)[C@H](C)N)C(=O)N[C@@H](Cc1ccccc1)C(=O)N[C@@H](Cc1ccccc1)C(=O)N[C@@H](Cc1ccccc1)C(=O)N[C@@H](Cc1ccccc1)C(=O)N[C@@H](Cc1ccccc1)C(=O)N[C@@H](CCC(=O)O)C(=O)N[C@H](C(=O)N[C@@H](CCCCN)C(=O)O)[C@@H](C)O (H-ALFFFFFETK-OH; N-terminus and C-terminus assumed)	216 nM
CC[C@H](C)[C@H](NC(=O)[C@H](CCCCN)NC(=O)[C@@H](N)CCCNC(=N)N)C(=O)N[C@@H](CO)C(=O)N[C@@H](CC(N)=O)C(=O)N[C@@H](Cc1c[nH]c2ccccc12)C(=O)N[C@@H](CO)C(=O)N[C@@H](CC(C)C)C(=O)N[C@@H](CCCCN)C(=O)N[C@@H](CCCCN)C(=O)O (H-RKISNWSLKK-OH; N-terminus and C-terminus assumed)	131 nM
CSCC[C@H](NC(=O)[C@H](C)N)C(=O)N[C@H](C(=O)N[C@H](C(=O)N[C@@H](CO)C(=O)N[C@@H](CO)C(=O)N[C@@H](CO)C(=O)N[C@@H](CCC(N)=O)C(=O)N[C@@H](CCCCN)C(=O)N[C@@H](CC(N)=O)C(=O)O)[C@@H](C)O)[C@@H](C)O (H-AMTTSSSQKN-OH; N-terminus and C-terminus assumed)	2340 nM
CC[C@H](C)[C@H](NC(=O)[C@H](CS)NC(=O)[C@H](Cc1ccccc1)NC(=O)[C@H](CC(N)=O)NC(=O)[C@H](C)NC(=O)[C@H](CC(C)C)NC(=O)[C@@H](N)CS)C(=O)N[C@@H](Cc1ccccc1)C(=O)N[C@@H](CC(N)=O)C(=O)N[C@@H](CCCNC(=N)N)C(=O)O	222 nM
